Reference: patent US20220332774A1, “THERAPEUTIC MITOCHONDRIAL PEPTIDES” (priority 2019, published 2022)

Legend:
C2C12 Cells = experiment: Glucose utilization in cultured C2C12 cells (myotubes); format: cell-based, mouse; settings: glucose concentration in medium relative to untreated cells; 5 μM peptide, 22 h
How it was run: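 Differentiated mouse myotubes (5 days in 2% horse serum) serum-starved 5 h, then treated 22 h at 37 °C with peptide at 5 μM final (0.1% DMSO) in low-glucose (1 g/L) DMEM. Glucose remaining in medium measured colorimetrically at 570 nm. Expressed as percent of untreated control, from 2–3 experiments in triplicate.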

3T3-L1 Mouse Adipocytes = experiment: Free fatty acid levels in cultured 3T3-L1 mouse adipocytes (isoproterenol stimulated); format: cell-based; settings: free fatty acid in medium; 5 μM peptide, 20-22 h pre-incubation then 3 h with 0.1 nM isoproterenol; isoproterenol alone = 100%
How it was run: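 3T3-L1 cells differentiated 12 days, insulin withdrawn, then peptides added on day 13 at 5 μM (0.1% DMSO) for 20-22 h at 37° C. After 3 h in assay buffer, medium free fatty acids read at 540 nm. Values expressed as percent of 0.1 nM isoproterenol-alone control.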

H4-IIE Cells = experiment: Glucose production in cultured H4-IIE cells; format: cell-based, rat; settings: glucose concentration in medium relative to untreated cells; 5 μM peptide, 24 h
How it was run: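 Rat H4-IIE hepatoma cells primed overnight in glucose-free DMEM with 2 mM pyruvate and 10 mM lactate, then treated 24 h at 37 °C with 5 μM peptide (0.1% DMSO; concentration assumes ~2000 Da). Medium glucose measured colorimetrically at 570 nm. Values are percent of untreated-cell glucose production; 0.5-1 nM insulin served as inhibitor reference.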

Row | Substance | Percent of Control Activity (C2C12 Cells) [%] | Percent of Isoproterenol Control Activity (3T3-L1 Mouse Adipocytes) [%] | Percent of Control Activity (H4-IIE Cells) [%]
1 | 118 (MSLSYLQDSTY) [compound 118] | 83 | 98 | 126
2 | 119 (MSLTPHILPTMP) [compound 119] | 109 | 97 | 122
3 | 127 (MSTINQQVIITLTVNPTQACS) [compound 127] | 109 | 104 | 88
4 | 165 (MWRVLGALWW) [compound 165] | 95 | 108 | 125
5 | 201 (TKNFHQTPPPPLLATALKHISAKP) [compound 201] | 96 | 102 | 109
6 | 166 (MWSHPSHHSTINITNKWLL) [compound 166] | 105 | 96 | 105
7 | 72 (MLQGQAHLSILFSI) [compound 72] | 97 | 96 | 107
8 | 186 (MIINDEYWLVVLVMVHCPESMLLK) [compound 186] | 94 | 105 | 115
9 | 134 (MTNIFGVWAR) [compound 134] | 101 | 111 | 92
10 | 107 (MPTPILIFRSPWSLYSYPT) [compound 107] | 110 | 104 | 96
11 | 190 (MYHSENSMMDHVTNNATGMNIMEK) [compound 190] | 107 | 101 | 118
12 | 202 (MWVIEEYAKILRSWVWFNPPQLPA) [compound 202] | 89 | 93 | 103
13 | 48 (MHKRLSPIYYSHRYLPDKRL) [compound 48] | 104 | 91 | 101
14 | 153 (MVSMMTSMGM) [compound 153] | 104 | 93 | 91
15 | 50 (MHQSCKPEMKTFFQGQI) [compound 50] | 99 | 100 | 106
16 | 29 (MGDCAVCDA) [compound 29] | 109 | 90 | 106
17 | 193 (LHNNPNPNTNYLPNWKQNTQMGLS) [compound 193] | 110 | 105 | 110
18 | 143 (MVGYLIPVWVLAIVCSDMLKPLS) [compound 143] | 98 | 107 | 111
19 | 184 (MASAKGCSSP) [compound 184] | 106 | 104 | 118
20 | 181 (MCHWAGGASNTGDA) [compound 181] | 107 | 103 | 109
21 | 210 (MKVDATMDFT) [compound 210] | 92 | 95 | 100
22 | 159 (MWGVSDMLVFLEV) [compound 159] | 102 | 100 | 111

Row | Substance | Percent of Control Activity (C2C12 Cells) [%] | Percent of Isoproterenol Control Activity (3T3-L1 Mouse Adipocytes) [%] | Percent of Control Activity (H4-IIE Cells) [%]
23 | 106 (MPTNLPTLNST) [compound 106] | 101 | 98 | 107
24 | 169 (MYLNGTCSAS) [compound 169] | 107 | 110 | 109
25 | 8 (MAPPLPPLEPTVKLT) [compound 8] | 102 | 102 | 90
26 | 20 (MFDQENVVTSTESSPS) [compound 20] | 102 | 88 | 97
27 | 199 (PLCKIHCRIHLYYQSLPHNNIHVP) [compound 199] | 94 | 105 | 111
28 | 100 (MPIIRRMSWSP) [compound 100] | 102 | 105 | 123
29 | 208 (CHWAGGASNTGDA) [compound 208] | 89 | 103 | 107
30 | 33 (MGGGVLLGLQ) [compound 33] | 111 | 103 | 100
31 | 73 (MLRSMLWNLWSKPQFHAHRP) [compound 73] | 111 | 98 | 111
32 | 78 (MMAHLGKKPVSGG) [compound 78] | 106 | 96 | 114
33 | 195 (LTSKYSNQPSTITHQLQLQSHPSP) [compound 195] | 112 | 110 | 108
34 | 182 (MFAVSMMWSLE) [compound 182] | 98 | 92 | 113
35 | 161 (MWLIEEYAMSDF) [compound 161] | 103 | 99 | 114
36 | 103 (MPPKDKIWNLV) [compound 103] | 98 | 108 | 97
37 | 174 (MYYSDGYWGVSWGMGV) [compound 174] | 93 | 105 | 110
38 | 113 (MQTKSLQSPQ) [compound 113] | 97 | 102 | 134
39 | 47 (MHKHYYNKHPHHYNLP) [compound 47] | 103 | 96 | 107
40 | 45 (MHGELPWVVN) [compound 45] | 108 | 98 | 107
41 | 65 (MLKPETSSDSPSA) [compound 65] | 99 | 99 | 102
42 | 145 (MVKPHLQNASI) [compound 145] | 103 | 94 | 102
43 | 38 (MGLWLVCWVL) [compound 38] | 108 | 103 | 111
44 | 197 (WVEVMMEVEIWCCEIVLGNSFSSQ) [compound 197] | 102 | 100 | 105
